In patent publication US11453671B2, “Pyrazolopyrimidine inhibitors of JAK kinases and uses thereof” (Genentech, Inc., priority 2020, dated 2022):

Legend:
[1] = Cell cytotoxicity assay A549 (CellTiter-Glo, 72 hours); type: cell-based; conditions: human, A549 cells, read-out: Cytotox A549 EC50
Procedure: (§1) A549 (ATCC® CCL-185™), Jurkat clone E6-1 (ATCC® TIB-152™) and HEK-293T (ATCC® CRL-1573™) cells maintained at a sub-confluent density in T175 flasks were used. Cells in exponential growth phase were plated (450 cells in 45 μL of medium) in Greiner 384-well black/clear tissue culture treated plates (Greiner Catalog No. 781091). After dispensing cells, plates were allowed to equilibrate at room temperature for 30 minutes, after which time the cell plates were placed overnight in a 37° C. CO2 and humidity-controlled incubator. The following day, cells were treated with test agent diluted in 100% DMSO (0.5% final DMSO concentration on cells) with a 10-point titration and a top concentration of 50 μM. Cells and compounds were then incubated for 72 hours in a 37° C. CO2 and humidity-controlled incubator, after which time cell viability was measured by adding CellTiter-Glo® (Promega G7572) reagent to all wells. Plates were incubated at room temperature for 20 minutes and then the well luminescence was read on an EnVision plate reader (Perkin Elmer Life Sciences).

[2] = Cell cytotoxicity assay HEK-293T (CellTiter-Glo, 72 hours); type: cell-based; conditions: human, HEK-293T cells, read-out: Cytotox K-293 EC50
Excerpt: (§2) Cytotoxicity assays. Hepatocyte toxicity, general cytotoxicity or cytotoxicity of unknown mechanism is an undesirable feature for a potential drug, including inhaled drugs. It may be of benefit for an inhaled JAK1 or JAK1/JAK2 inhibitor to have low intrinsic cytotoxicity against various cell types. Typical cell types used to assess cytotoxicity include both primary cells such as human hepatocytes, and proliferating established cell lines such as Jurkat and HEK-293. […] Methods of measuring cytotoxicity are known in the art. In some embodiments, compounds described herein were tested as follows:
(§3) (a) Jurkat and HEK293T cells were maintained at a sub confluent density in T175 flasks. Cells were plated at 450 cells/45 μl medium in Greiner 384 well black/clear tissue culture treated plates. (Greiner Catalog #781091). After dispensing cells, plates were equilibrated at room temperature for 30 minutes. After 30 minutes at room temperature, cells were incubated overnight at 37° C. in a CO2 and humidity controlled incubator. The following day, cells were treated with compounds diluted in 100% DMSO (final DMSO concentration on cells=0.5%) with a 10 point dose-response curve with a top concentration of 50 μM. Cells and compounds were then incubated for 72 hours overnight at 37° C. in a CO2 and humidity controlled incubator. After 72 hours of incubation, viability was measured using CellTiterGlo® (Promega Catalog #G7572) to all wells. After incubation at room temperature for 20 minutes, plates were read on EnVision™ (Perkin Elmer Life Sciences) using luminescence mode;
as §1

[3] = Cell cytotoxicity assay Jurkat (CellTiter-Glo, 72 hours); type: cell-based; conditions: human, Jurkat clone E6-1 cells, read-out: Cytotox Jurkat EC50
Excerpt: as §2, §3, §1

[4] = biological target: T1, recombinant human JAK1 kinase domain protein (Residues 854-1154) (Homo sapiens, UniProt P23458); assay: JAK1 biochemical assay (microfluidic mobility shift, peptide phosphorylation); conditions: 25 μM ATP, 1 nM total JAK1; read-out: Enzyme JAK1 Ki
T1 construct: human JAK1 kinase domain protein (Residues 854-1154); purchased Proteros Biostructures GmbH (Martinsried, Germany); host or cells: insect cells
T1 sequence (P23458 854-1154): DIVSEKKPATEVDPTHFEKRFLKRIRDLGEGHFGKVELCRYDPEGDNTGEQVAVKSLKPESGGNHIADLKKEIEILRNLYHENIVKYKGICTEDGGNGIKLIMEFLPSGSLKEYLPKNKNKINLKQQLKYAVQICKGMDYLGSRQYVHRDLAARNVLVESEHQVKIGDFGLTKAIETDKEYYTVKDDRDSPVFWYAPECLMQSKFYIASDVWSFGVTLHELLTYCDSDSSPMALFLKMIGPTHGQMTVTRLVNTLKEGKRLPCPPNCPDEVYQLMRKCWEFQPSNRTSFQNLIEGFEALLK
Excerpt: JAK1 and JAK2 Biochemical Assays

[5] = test system: JAK1: IL-13-stimulated STAT6 phosphorylation in BEAS-2B cells; assay: P-STAT6 BEAS-2B+IL-13 Cell Assay; type: cell-based, human; conditions: Homo sapiens, BEAS-2B, IL-13 stimulation, read-out: Cellular JAK1 PSTAT6 BEAS2B + IL13 IC50
Procedure: P-STAT6 BEAS-2B+IL-13 Cell Assay
In order to study the effect of JAK1 inhibitors in a cell line that is relevant to the cell biology of human asthma, an IL-13-stimulated STAT6 phosphorylation assay in the human lung bronchial epithelial BEAS-2B cell line was developed.
BEAS-2B cells (ATCC® CRL-9609™) were grown in Bronchial Epithelial Growth Medium (BEGM) (Lonza Catalog No. CC-3170; Walkersville, Md.; or PromoCell Catalog No. C-21060; Heidelberg, Germany). Test compound stock solutions (0.5 mM in DMSO) were serially diluted 1:2 in DMSO to generate a 10-point concentration curve (at 500×test concentration), which was further diluted by a 50-fold dilution step in BEGM to generate a 10× concentration curve (in 2% DMSO). Cells were plated at 100,000 cells/well in 200 μL of BEGM in 96-well plates and incubated for 48 hours at 37° C. in a humidified incubator. Medium was aspirated from the cells and replaced with 70 μL of fresh BEGM. Diluted test compound (10 μL; or 2% DMSO in assay medium) was added to the cells, and the plates were incubated for 1 hour at 37° C. in a humidified incubator. Twenty μL of 250 ng/mL human recombinant IL-13 (Bio Techne Catalog No. 213-ILB) was then added to the cells and incubated for 15 minutes at 37° C. Medium was aspirated from the cells and 60 μL of ice-cold 1×cell lysis buffer (Cell Signaling Technologies; Catalog No. 9803S) containing 1 mM PMSF was added to the cells. Assay plates were incubated at −80° C. for at least 1 hour. P-STAT6 was measured by coating GAR plates (MSD; Catalog No. L45RA-1) with rabbit anti-human total STAT6 antibody (Cell Signaling Technologies; Catalog No. 9362S), incubating the cell lysates in the coated plates overnight at 4° C., and then detecting with mouse anti-phospho-STAT6 (Tyr641) Clone 16E12 antibody (Millipore; Catalog No. 05-590, custom labeled by MSD with SULFO-tag) using standard MSD plate processing, washing, and detection protocols. Plates were read on the MESO SECTOR S600. Data Analysis
Data analysis was performed by subtracting negative control values from all wells and determining percent of control using the positive control values; the IC50 was determined with a four-parameter logistic fit model as shown in Equation 4.

[6] = biological target: Recombinant human JAK2 kinase domain protein (Residues 812-1132) (Homo sapiens, UniProt O60674); assay: JAK2 biochemical assay (microfluidic mobility shift, peptide phosphorylation); conditions: Enzyme JAK2 Ki (nM), 25 μM ATP, 0.2 nM total JAK2
Chain of Recombinant human JAK2 kinase domain protein (Residues 812-1132) (O60674 812-1132): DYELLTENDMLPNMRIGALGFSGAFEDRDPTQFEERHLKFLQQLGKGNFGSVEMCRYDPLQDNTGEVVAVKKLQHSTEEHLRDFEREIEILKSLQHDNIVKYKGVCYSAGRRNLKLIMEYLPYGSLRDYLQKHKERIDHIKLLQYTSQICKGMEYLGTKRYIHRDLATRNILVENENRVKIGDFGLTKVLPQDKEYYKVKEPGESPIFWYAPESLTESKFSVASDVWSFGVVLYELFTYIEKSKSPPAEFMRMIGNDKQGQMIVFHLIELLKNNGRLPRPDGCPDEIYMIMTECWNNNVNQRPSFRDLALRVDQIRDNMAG

[7] = Table 4, methyl-desmethyl analog pairs
[8] = Table 3, 72 hours, top concentration of 50 μM

CS(=O)(=O)c1ccc(OC(F)F)c(-c2n[nH]cc2NC(=O)c2cnn3cccnc23)c1 [Example 4 in WO201708 9390, reference compound]
EC50 at 72 h [1, 7]: 22000 nM | EC50 at 72 h [2, 7]: 2100 nM | EC50 at 72 h [3, 7]: 6200 nM

CCS(=O)(=O)c1ccc(OC(F)F)c(-c2nn(C)cc2NC(=O)c2cnn3cccnc23)c1 [Example 6, N-[3-[2-(difluoromethoxy)-5-ethylsulfonyl-phenyl]-1-methyl-pyrazol-4-yl]pyrazolo[1,5-a]pyrimidine-3-carboxamide]
Ki [4]: 0.48 nM | IC50 [5]: 18 nM | EC50 at 72 h [1, 8]: 6750 nM | EC50 at 72 h [1, 7]: 6750 nM | EC50 at 72 h [2, 8]: 6050 nM | EC50 at 72 h [2, 7]: 6050 nM | EC50 at 72 h [3, 8]: 21500 nM | EC50 at 72 h [3, 7]: 21500 nM

Cn1cc(NC(=O)c2cnn3cccnc23)c(-c2cc(S(=O)(=O)c3cnn(CCN)c3)ccc2OC(F)F)n1 [Example 47, N-[3-[5-[1-(2-aminoethyl)pyrazol-4-yl]sulfonyl-2-(difluoromethoxy)phenyl]-1-methyl-pyrazol-4-yl]pyrazolo[1,5-a]pyrimidine-3-carboxamide]
Ki [4]: 0.31 nM | IC50 [5]: 210 nM | Ki [6]: 0.33 nM

N#CCn1cc(NC(=O)c2cnn3cccnc23)c(-c2cc(S(=O)(=O)C3COC3)ccc2OC(F)F)n1 [Example 51, N-[1-(cyanomethyl)-3-[2-(difluoromethoxy)-5-(oxetan-3-ylsulfonyl)phenyl]pyrazol-4-yl]pyrazolo[1,5-a]pyrimidine-3-carboxamide]
Ki [4]: 0.39 nM | IC50 [5]: 100 nM | Ki [6]: 0.21 nM

CN1CC(n2cc(NC(=O)c3cnn4cccnc34)c(-c3cc(S(=O)(=O)C4CC4)ccc3OC(F)F)n2)C1 [Example 52, N-[3-[5-cyclopropylsulfonyl-2-(difluoromethoxy)phenyl]-1-(1-methylazetidin-3-yl)pyrazol-4-yl]pyrazolo[1,5-a]pyrimidine-3-carboxamide]
Ki [4]: 2.2 nM | IC50 [5]: 96 nM | Ki [6]: 1 nM

Cn1cc(NC(=O)c2cnn3cccnc23)c(-c2cc(S(=O)(=O)c3cnn(CCN4CCC4)c3)ccc2OC(F)F)n1 [Example 53, N-[3-[5-[1-[2-(azetidin-1-yl)ethyl]pyrazol-4-yl]sulfonyl-2-(difluoromethoxy)phenyl]-1-methyl-pyrazol-4-yl]pyrazolo[1,5-a]pyrimidine-3-carboxamide]
Ki [4]: 0.94 nM | IC50 [5]: 50 nM | Ki [6]: 0.19 nM

CN1CCN(CCn2cc(S(=O)(=O)c3ccc(OC(F)F)c(-c4nn(C)cc4NC(=O)c4cnn5cccnc45)c3)cn2)CC1 [Example 54, N-[3-[2-(difluoromethoxy)-5-[1-[2-(4-methylpiperazin-1-yl)ethyl]pyrazol-4-yl]sulfonyl-phenyl]-1-methyl-pyrazol-4-yl]pyrazolo[1,5-a]pyrimidine-3-carboxamide]
Ki [4]: 1.2 nM | IC50 [5]: 140 nM | Ki [6]: 0.21 nM

Cn1cc(NC(=O)c2cnn3cccnc23)c(-c2cc(S(=O)(=O)c3cnn(C4CN5CCC4CC5)c3)ccc2OC(F)F)n1 (centres unmarked) [Example 55, N-[3-[2-(difluoromethoxy)-5-(1-quinuclidin-3-ylpyrazol-4-yl)sulfonyl-phenyl]-1-methyl-pyrazol-4-yl]pyrazolo[1,5-a]pyrimidine-3-carboxamide]
Ki [4]: 0.93 nM | IC50 [5]: 71 nM | Ki [6]: 0.98 nM

CN1C=Cc2ccc(S(=O)(=O)c3ccc(OC(F)F)c(-c4nn(C)cc4NC(=O)c4cnn5cccnc45)c3)cc2C1 [Example 62, N-[3-[2-(difluoromethoxy)-5-[(2-methyl-1H-isoquinolin-7-yl)sulfonyl]phenyl]-1-methyl-pyrazol-4-yl]pyrazolo[1,5-a]pyrimidine-3-carboxamide]
Ki [4]: 2 nM | IC50 [5]: 150 nM | Ki [6]: 0.93 nM

CN1C=Cc2cc(S(=O)(=O)c3ccc(OC(F)F)c(-c4nn(C)cc4NC(=O)c4cnn5cccnc45)c3)ccc2C1 [Example 64, N-[3-[2-(difluoromethoxy)-5-[(2-methyl-1H-isoquinolin-6-yl)sulfonyl]phenyl]-1-methyl-pyrazol-4-yl]pyrazolo[1,5-a]pyrimidine-3-carboxamide]
Ki [4]: 1.9 nM | IC50 [5]: 210 nM | Ki [6]: 0.84 nM

Cn1cnc(S(=O)(=O)c2ccc(OC(F)F)c(-c3nn(C)cc3NC(=O)c3cnn4cccnc34)c2)c1 [Example 65, N-[3-[2-(difluoromethoxy)-5-(1-methylimidazol-4-yl)sulfonyl-phenyl]-1-methyl-pyrazol-4-yl]pyrazolo[1,5-a]pyrimidine-3-carboxamide]
Ki [4]: 0.72 nM | IC50 [5]: 72 nM | Ki [6]: 0.24 nM

Cn1cc(NC(=O)c2cnn3cccnc23)c(-c2cc(S(=O)(=O)c3c[nH]cn3)ccc2OC(F)F)n1 [Example 66, N-[3-[2-(difluoromethoxy)-5-(1H-imidazol-4-ylsulfonyl)phenyl]-1-methyl-pyrazol-4-yl]pyrazolo[1,5-a]pyrimidine-3-carboxamide]
Ki [4]: 0.55 nM | IC50 [5]: 380 nM | Ki [6]: 0.18 nM

Cn1cc(NC(=O)c2cnn3cccnc23)c(-c2cc(S(=O)(=O)c3cncnc3)ccc2OC(F)F)n1 [Example 67, N-[3-[2-(difluoromethoxy)-5-pyrimidin-5-ylsulfonyl-phenyl]-1-methyl-pyrazol-4-yl]pyrazolo[1,5-a]pyrimidine-3-carboxamide]
Ki [4]: 0.48 nM | IC50 [5]: 25 nM | Ki [6]: 0.24 nM

CCS(=O)(=O)c1ccc(OC(F)F)c(-c2n[nH]cc2NC(=O)c2cnn3cccnc23)c1 [Example. 192 in WO201708 9390, reference compound]
EC50 at 72 h [1, 7]: 2370 nM | EC50 at 72 h [2, 7]: 437 nM | EC50 at 72 h [3, 7]: 790 nM

O=C(Nc1c[nH]nc1-c1cc(S(=O)(=O)C(F)F)ccc1OC(F)F)c1cnn2cccnc12 [reference compound]
EC50 at 72 h [1, 7]: 260 nM | EC50 at 72 h [2, 7]: 38 nM | EC50 at 72 h [3, 7]: 160 nM
